Data on 13 molecules can be found in US20150374767A1, “Treatment of Cancer” (priority 2013, published 2015).

Entries after “also recorded” stand apart in the source; their conditions may differ. Counter-ions that a name gives are not always drawn.

For one assay, the system named is VEGFR2. The note with it: cited from earlier work; for IC50: read-out: IC50 for VEGFR2 (KDR).
The target in the next assay is c-Met (Homo sapiens, UniProt P08581). As to conditions: cited from earlier work.
Another assay concerns the target PDGFRβ (Homo sapiens, UniProt P09619). As to conditions: cited from earlier work.
The subject of another assay is Virttu cell panel. Briefly: combination with HSV1716, DCP cell death, Chou-Talalay analysis, cell panel. The format is cell-based, human.
For another assay, the system named is Hep3B. It counts as cell-based, human.
Another assay concerns HSV1716gfp. Briefly: GFP expression during infection with HSV1716gfp (drug toxicity to virus). It counts as cell-based, herpes simplex virus.
The test system of the next assay is SPC111. Briefly: combination with HSV1716, Chou-Talalay, SPC111. It counts as cell-based, human. As to conditions: SPC111, HSV1716 moi 0.5 and 0.05, 72 hours.
The next assay has as its system HepG2-luc. It counts as cell-based, human.
In the next assay the test system is CP70. It counts as cell-based, human.
In a further assay the test system is SKOV3. The format is cell-based, human.
A further assay has as its system UVW. The format is cell-based, human.
The subject of another assay is Virttu cell line panel. Briefly: cells. The note with it: Homo sapiens; most/all cell lines of panel, 72 hrs; read-out: IC50 (DCP leakage), range over cell lines. The format is cell-based.
Another assay concerns One58. The format is cell-based, human.
The next assay concerns U87. The format is cell-based, human.
Another assay concerns PARP. Briefly: PARP cleavage by Western blotting. It counts as cell-based, human. As to conditions: in combination with HSV1716. For orientation: In western blotting, separated proteins are transferred to a membrane and probed.
The test system of another assay is Ovcar3. It counts as cell-based, human.
A further assay has as its system HuH7. The format is cell-based, human.
Assay [1] has as its system human gastric carcinoma xenograft. Briefly: patient-derived human gastric carcinoma xenograft model. The note with it: mouse, in vivo. Set-up: species or system mice. As for the experimental part: HSV1716 (Seprehvir) was used in a personalised oncology study. Patient-derived tumour samples were obtained from a gastric carcinoma. There have been no previous in vitro or in vivo pre-clinical studies with Seprehvir in human gastric carcinoma cells/xenografts. Seprehvir was stored at −70° C., and multiple vials were provided to avoid repeated freeze/thawing.
Two groups of 3 mice with gastric carcinoma implants were treated with 2×10^6 pfu Seprehvir by either intratumoural (IT) or intravenous (IV) routes of administration. Control mice (n=3) received no treatment and in these mice the implants grew rapidly and all were sacrificed within 18 days (FIG. 61). For IV injection, Seprehvir was administered on days 0, 3, 10 and 18, at which point the tumors were too large and the mice were sacrificed.
For IT injection of Seprehvir, 2×10^6 pfu was administered on days 0, 3, 10, 18, 21 and 25.
. Control mice (n=3) received no treatment and in these mice the implants grew rapidly and all were sacrificed within 18 days (FIG. 62). […]. A follow-on study with HSV1716 administering more frequent by IV dosing at the higher concentration of 10^7 pfu was performed using the same human gastric carcinoma xenograft model. […].
Groups of 3 mice received IV injection of HSV1716 at 1×10^7 pfu on days 1, 3, 5, 8, 10, 12, 15, 17 and 19. […]

Sequence of PDGFRβ (P09619 33-1106): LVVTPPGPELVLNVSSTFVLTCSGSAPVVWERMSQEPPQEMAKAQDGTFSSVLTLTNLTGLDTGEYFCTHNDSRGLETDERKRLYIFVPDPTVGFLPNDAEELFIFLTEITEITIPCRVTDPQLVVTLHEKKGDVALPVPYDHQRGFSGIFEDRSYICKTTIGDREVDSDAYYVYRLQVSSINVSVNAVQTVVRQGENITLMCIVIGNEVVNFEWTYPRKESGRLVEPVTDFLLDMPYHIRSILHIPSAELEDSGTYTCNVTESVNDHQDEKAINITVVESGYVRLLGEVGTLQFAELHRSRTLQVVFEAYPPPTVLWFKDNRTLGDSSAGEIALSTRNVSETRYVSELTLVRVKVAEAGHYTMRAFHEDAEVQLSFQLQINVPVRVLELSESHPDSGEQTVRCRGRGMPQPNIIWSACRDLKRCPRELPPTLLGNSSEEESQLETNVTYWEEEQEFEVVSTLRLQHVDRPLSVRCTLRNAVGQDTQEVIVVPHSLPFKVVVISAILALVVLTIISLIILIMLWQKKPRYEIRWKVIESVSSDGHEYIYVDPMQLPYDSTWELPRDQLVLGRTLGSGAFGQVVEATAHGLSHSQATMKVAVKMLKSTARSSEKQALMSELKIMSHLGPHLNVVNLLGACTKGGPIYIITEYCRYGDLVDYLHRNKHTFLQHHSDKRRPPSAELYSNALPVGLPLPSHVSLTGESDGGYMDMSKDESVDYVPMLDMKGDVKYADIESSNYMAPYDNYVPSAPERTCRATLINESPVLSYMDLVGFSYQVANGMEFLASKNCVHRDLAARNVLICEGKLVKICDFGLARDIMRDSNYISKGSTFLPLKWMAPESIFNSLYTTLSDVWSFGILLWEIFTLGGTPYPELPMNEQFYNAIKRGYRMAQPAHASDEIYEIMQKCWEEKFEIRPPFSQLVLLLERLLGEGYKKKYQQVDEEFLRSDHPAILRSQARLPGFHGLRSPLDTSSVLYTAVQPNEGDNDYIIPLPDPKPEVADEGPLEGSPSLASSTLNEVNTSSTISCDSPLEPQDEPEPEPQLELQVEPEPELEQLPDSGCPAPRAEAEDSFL
Sequence of c-Met (P08581 25-1390): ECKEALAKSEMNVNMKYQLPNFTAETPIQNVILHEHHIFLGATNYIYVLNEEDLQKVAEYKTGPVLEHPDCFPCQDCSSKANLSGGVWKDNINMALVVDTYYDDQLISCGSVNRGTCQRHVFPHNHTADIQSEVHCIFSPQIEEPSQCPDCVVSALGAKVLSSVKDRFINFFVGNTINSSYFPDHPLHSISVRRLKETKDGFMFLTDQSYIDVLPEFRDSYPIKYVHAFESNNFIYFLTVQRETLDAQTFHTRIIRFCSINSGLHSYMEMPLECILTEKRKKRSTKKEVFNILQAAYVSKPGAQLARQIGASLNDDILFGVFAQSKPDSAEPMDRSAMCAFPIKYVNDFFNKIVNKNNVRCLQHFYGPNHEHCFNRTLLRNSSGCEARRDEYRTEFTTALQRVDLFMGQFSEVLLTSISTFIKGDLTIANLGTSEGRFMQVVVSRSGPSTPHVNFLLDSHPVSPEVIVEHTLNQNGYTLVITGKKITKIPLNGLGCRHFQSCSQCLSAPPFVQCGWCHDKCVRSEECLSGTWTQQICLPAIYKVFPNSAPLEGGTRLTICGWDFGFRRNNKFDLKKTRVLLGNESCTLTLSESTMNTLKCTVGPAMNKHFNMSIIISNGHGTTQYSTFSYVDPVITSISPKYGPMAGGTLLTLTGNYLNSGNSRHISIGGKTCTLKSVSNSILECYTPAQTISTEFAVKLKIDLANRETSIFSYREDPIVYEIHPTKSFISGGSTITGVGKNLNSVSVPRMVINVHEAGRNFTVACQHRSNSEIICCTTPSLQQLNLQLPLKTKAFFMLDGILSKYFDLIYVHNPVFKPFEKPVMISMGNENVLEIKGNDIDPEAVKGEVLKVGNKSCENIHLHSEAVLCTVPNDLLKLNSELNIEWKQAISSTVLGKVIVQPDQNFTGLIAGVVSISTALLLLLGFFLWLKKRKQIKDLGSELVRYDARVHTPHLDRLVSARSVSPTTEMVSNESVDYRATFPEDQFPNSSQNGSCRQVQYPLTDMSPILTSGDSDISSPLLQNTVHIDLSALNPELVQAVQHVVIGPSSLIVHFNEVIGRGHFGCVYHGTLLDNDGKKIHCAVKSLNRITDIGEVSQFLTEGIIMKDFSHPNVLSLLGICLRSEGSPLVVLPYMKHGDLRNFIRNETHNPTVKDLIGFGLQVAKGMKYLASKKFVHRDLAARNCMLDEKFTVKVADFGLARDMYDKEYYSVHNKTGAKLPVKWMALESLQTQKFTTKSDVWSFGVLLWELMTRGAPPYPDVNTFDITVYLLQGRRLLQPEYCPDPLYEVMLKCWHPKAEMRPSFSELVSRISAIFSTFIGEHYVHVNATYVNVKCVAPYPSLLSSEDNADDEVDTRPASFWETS

One may read the IC50 as the midpoint of a concentration-inhibition curve. For the molecule “N-(2-fluoro-4-((2-(4-(4-methylpiperazin-1-yl)piperidine-1-carboxamido)pyridin-4-yl)oxy)phenyl)-N-(4-fluorophenyl)cyclopropane-1,1-dicarboxamide [Golvatinib]”, the IC50 in the assay on VEGFR2 was 16 nM; at c-Met, 14 nM.

Consider `CN(C[C@@H]1COCCO1)S(=O)(=O)Nc1ccc2ccc3ncc(-c4cnn(C)c4)cc3c(=O)c2c1` [MK-2461, N-((2R)-1,4-Dioxan-2-ylmethyl)-N-methyl-N′-[3-(1-methyl-1H-pyrazol-4-yl)-5-oxo-5H-benzo[4,5]cyclohepta[1,2-b]pyridin-7-yl]sulfamide], for which the concentration for half-maximal inhibition (IC50) was 22 nM on PDGFRβ and 2.5 nM at c-Met.

With `COc1cc2c(Oc3ccc4[nH]c(C)cc4c3F)ncnc2cc1OCCCN1CCCC1` [Cediranib, 4-[(4-fluoro-2-methyl-1H-indol-5-yl)oxy]-6-methoxy-7-[3-(pyrrolidin-1-yl)propoxy]quinazoline], the IC50 with VEGFR2 is 0.5 nM.

On to `CCCNC(=O)Nc1ccc(Oc2ncnc3cc(OC)c(OC)cc23)cc1Cl` [KRN 633, N-[2-Chloro-4-[(6,7-dimethoxy-4-quinazolinyl)oxy]phenyl]-N′-propylurea], for which the results for the IC50 in the assay on VEGFR2 and on PDGFRβ were 160 nM and 9850 nM, respectively.

For `COc1cc2ncnc(Nc3ccc(F)c(Cl)c3)c2cc1OCCCN1CCOCC1` [Gefitinib, N-(3-chloro-4-fluoro-phenyl)-7-methoxy-6-(3-morpholin-4-ylpropoxy)quinazolin-4-amine], the “overall synergy/antagonism with HSV1716 on cell death” value in the assay on Virttu cell panel is listed as “antagonistic with HSV1716 in all cell lines; also recorded: mostly antagonistic”. The “synergy/antagonism with HSV1716 on cell death (Chou-Talalay)” value (“synergy/antagonism … (Chou-Talalay)” for short) in the assay with Hep3B is recorded as “Synergy”.

As for `Cc1cc(F)c(Nc2ncnc3cc(OCc4ccccc4)ccc23)cc1O` [ZM 323881 HCl, 5-((7-Benzyloxyquinazolin-4-yl)amino)-4-fluoro-2-methylphenol hydrochloride], the IC50 in the assay with VEGFR2 is less than 2 nM.

In the case of `CCN(CC)CCNC(=O)c1c(C)[nH]c(/C=C2\C(=O)Nc3ccc(F)cc32)c1C` [Sunitinib, N-(2-diethylaminoethyl)-5-[(Z)-(5-fluoro-2-oxo-1H-indol-3-ylidene)methyl]-2,4-dimethyl-1H-pyrrole-3-carboxamide], the “effect on GFP expression during HSV1716gfp infection” value (from here on “effect”) is on record as “more pronounced” with HSV1716gfp (CP70, moi 0.05, 72 hrs); “more pronounced” with HSV1716gfp (SPC111, moi 0.05, 72 hrs); “increased GFP expression” with HSV1716gfp (all 9 cell lines tested, moi 0.5 and moi 0.05, 72 hours). Moreover, the “number of cell lines in which moi 0.05 generated synergy” value with Virttu cell panel is given as 9 of the 10. Moreover, in the assay with Virttu cell panel, the “number of cell lines in which moi 0.5 generated synergy” value is on record as 7 of the 10. The “number of cell lines tested with clear synergy signals / synergism with HSV1716” value in the assay on Virttu cell panel was 9 of the 10. Moreover, the “synergy/antagonism … (Chou-Talalay)” value is listed as “strongly synergistic” in the assay on SPC111; “strongly synergistic” in the assay on HepG2-luc; “strongly synergistic” in the assay with CP70; “some evidence of synergy” with SKOV3; “antagonistic” in the assay on UVW; “strongly synergistic” with One58. Also, in the assay on U87, the “synergy/antagonism … (Chou-Talalay)” value is recorded as “strongly synergistic”. In addition, in the assay on Virttu cell line panel, the IC50 lay in the range of 500 to 15000 nM. In addition, the “PARP cleavage (executioner phase of apoptosis)” value in the assay on PARP (Hep3B cells) and in the assay on PARP (Ovcar3 cells) was “PARP cleavage demonstrated by Western blotting” throughout.

Take `C[C@@H](Oc1cc(-c2cnn(C3CCNCC3)c2)cnc1N)c1c(Cl)ccc(F)c1Cl` [Crizotinib, 3-[(1R)-1-(2,6-dichloro-3-fluorophenyl)ethoxy]-5-(1-piperidin-4-ylpyrazol-4-yl)pyridin-2-amine]: the “effect” value with HSV1716gfp (CP70, moi 0.5 and 0.05, 72 hrs) is on record as “increased GFP expression”; in the assay with HSV1716gfp (Hep3B, moi 0.5 and 0.05, 72 hrs), “decreased GFP expression”; with HSV1716gfp (HepG2-luc, both moi (0.5 and 0.05), 72 hrs), “little effect on GFP expression”; in the assay on HSV1716gfp (HuH7, moi 0.5 and 0.05, 72 hrs), “decreased GFP expression”; in the assay with HSV1716gfp (One58, moi 0.5 and 0.05, 72 hrs), “increased GFP expression”; in the assay with HSV1716gfp (Ovcar3, moi 0.5 and 0.05, all drug doses, 72 hrs) it was “little effect on GFP expression”. Also, the “effect” value is reported as “little effect on GFP expression” with HSV1716gfp (SPC-111, moi 0.5 and 0.05, all drug doses, 72 hrs); “little effect on GFP expression” with HSV1716gfp (Skov3, moi 0.5 and 0.05, all drug doses, 72 hrs); “increased GFP expression” in the assay with HSV1716gfp (U87, moi 0.5 and 0.05, 72 hrs); “decreased GFP expression” in the assay on HSV1716gfp (UVW, moi 0.5 and 0.05, 72 hrs). The “number of cell lines in which moi 0.05 generated synergy” value in the assay on Virttu cell panel is on record as 8 of the 9. Besides, the “number of cell lines in which moi 0.5 generated synergy” value with Virttu cell panel is 3 of the 9. For the same molecule, the “synergy/antagonism … (Chou-Talalay)” value with SPC111 is recorded as “some limited synergy”; in the assay on HepG2-luc, “synergistic”; in the assay on CP70 it was “strongly synergistic”; with SKOV3, “some limited synergy”; in the assay with UVW, “strongly synergistic”; in the assay with Ovcar3 it was “some limited synergy”. Further, the “synergy/antagonism … (Chou-Talalay)” value in the assay with One58 is on record as “antagonistic”; in the assay on U87, “strongly synergistic”; in the assay with HuH7, “some limited synergy”. The IC50 in the assay with Virttu cell line panel fell in the range of 2000 to 30000 nM.

For `Cc1[nH]c(/C=C2\C(=O)Nc3ccccc32)c(C)c1CCC(=O)O` [TSU-68, (Z)-3-(2,4-dimethyl-5-((2-oxoindolin-3-ylidene)methyl)-1H-pyrrol-3-yl)propanoic acid], the Ki on VEGFR2 (read-out: Ki for VEGFR2 (Flk-1/KDR)) was 2100 nM; at PDGFRβ (read-out: Ki for PDGFRβ), 8 nM.

For `CNC(=O)c1cc(Oc2ccc(NC(=O)Nc3ccc(Cl)c(C(F)(F)F)c3)c(F)c2)ccn1.O` [Regorafenib, 4-[4-({[4-Chloro-3-(trifluoromethyl)phenyl]carbamoyl}amino)-3-fluorophenoxy]-N-methylpyridine-2-carboxamide hydrate], the tumour growth inhibition entry in [1] was “highly effective at tumour growth inhibition”.

With `Nc1nccc(Oc2ccc(NC(=O)c3c[nH]cc(-c4ccc(F)cc4)c3=O)cc2F)c1Cl` [BMS 794833, N-(4-((2-amino-3-chloropyridin-4-yl)oxy)-3-fluorophenyl)-5-(4-fluorophenyl)-4-oxo-1,4-dihydropyridine-3-carboxamide], in the assay on VEGFR2, the IC50 was 15 nM.

In the case of `CCN1CCN(Cc2ccc(-c3cc4c(N[C@H](C)c5ccccc5)ncnc4[nH]3)cc2)CC1` [AEE788, 6-[4-[(4-Ethylpiperazin-1-yl)methyl]phenyl]-N-[(1R)-1-phenylethyl]-7H-pyrrolo[2,3-d]pyrimidin-4-amine], the IC50 in the assay on VEGFR2 is 77 nM.

On to `N#CC1(c2ccc(NC(=O)c3cccnc3NCc3ccncc3)cc2)CCCC1` [Apatinib, N-[4-(1-cyanocyclopentyl)phenyl-2-(4-picolyl)amino-3-Nicotinamide methanesulphonate], for which, in the assay with VEGFR2, the half-maximal inhibitory concentration (IC50) was 2.34 nM.
